Test results from ChEMBL document CHEMBL4376803, “Recent Advances in the Exploration of Therapeutic Analogues of Gramicidin S, an Old but Still Potent Antimicrobial Peptide” (J Med Chem, 2019).
Converted amounts (≈) assume the structure as drawn. Values belong to the compound of their own block, whether it stands above or below them.

Key:
[1] = Hemolytic activity in sheep erythrocytes; format: ADME, cell-based, Ovis aries, Erythrocyte
Priestia megaterium = experiment: Antibacterial activity against Bacillus megaterium ATCC 19213; format: functional
Staphylococcus aureus [2] = experiment: Antibacterial activity against Staphylococcus aureus NBRC 12732; format: functional
Pseudomonas aeruginosa [3] = experiment: Antibacterial activity against Pseudomonas aeruginosa NBRC 3080; format: functional
Bacillus subtilis = experiment: Antibacterial activity against Bacillus subtilis NBRC 3513; format: functional
Escherichia coli [4] = experiment: Antibacterial activity against Escherichia coli NBRC 12734; format: functional
Staphylococcus aureus [5] = experiment: Antibacterial activity against Staphylococcus aureus ATCC 49975 after 16 to 20 hrs by broth microdilution method; format: functional
Escherichia coli [6] = experiment: Antibacterial activity against Escherichia coli ATCC 25922 after 24 hrs; format: functional; conditions: ATCC 25922, 24 h
Enterococcus faecalis = experiment: Antibacterial activity against Enterococcus faecalis ATCC 29212 after 24 hrs; format: functional; conditions: ATCC 29212, 24 h
Pseudomonas aeruginosa [7] = experiment: Antibacterial activity against Pseudomonas aeruginosa ATCC 27853 incubated for 24 hrs; format: functional; conditions: ATCC 27853, 24 h
[8] = system: Staphylococcus epidermidis; experiment: Antibacterial activity against Staphylococcus epidermidis ATCC 12228 incubated for 24 hrs; format: functional; conditions: ATCC 12228, 24 h
Staphylococcus aureus [9] = experiment: Antibacterial activity against Staphylococcus aureus ATCC 29213 after 24 hrs; format: functional; conditions: ATCC 29213, 24 h
Bacillus cereus = experiment: Antibacterial activity against Bacillus cereus ATCC 11778 incubated for 24 hrs; format: functional; conditions: ATCC 11778, 24 h
Staphylococcus aureus [10] = experiment: Antibacterial activity against multidrug-resistant Staphylococcus aureus ATCC BAA-44 after overnight incubation by broth microdilution method; format: functional
[11] = Haemolytic activity in human RBC incubated for 1 hr; format: ADME, cell-based, Erythrocyte; conditions: human red blood cells
Klebsiella pneumoniae = experiment: Antibacterial activity against Klebsiella pneumonia K6 ATCC 700603 after overnight incubation by broth microdilution method; format: functional; conditions: 700603 K6
Escherichia coli [12] = experiment: Antibacterial activity against Escherichia coli K-12 ATCC 29181 after overnight incubation by broth microdilution method; format: functional
[13] = system: Staphylococcus epidermidis; experiment: Antibacterial activity against Staphylococcus epidermidis ATCC 27626 after overnight incubation by broth microdilution method; format: functional
Staphylococcus aureus [14] = experiment: Antibacterial activity against vancomycin-resistant Staphylococcus aureus Mu50/ATCC 700699 after overnight incubation by broth microdilution method; format: functional
Salmonella = experiment: Antibacterial activity against Salmonella after overnight incubation by broth microdilution method; format: functional
[15] = Haemolytic activity in human RBC after 4 hrs; format: ADME, cell-based, Erythrocyte; conditions: human red blood cells

Compound: NCCC[C@@H]1NC(=O)[C@H](CCCN)NC(=O)[C@@H]2CCCN2C(=O)[C@@H](Cc2ccccc2)NC(=O)[C@H](CCCN)NC(=O)[C@H](CCCN)NC(=O)[C@H](CCCN)NC(=O)[C@@H]2CCCN2C(=O)[C@@H](Cc2ccccc2)NC(=O)[C@H](CCCN)NC1=O [listing 1 of 2 here]
HC50 [1]: > 200 µg/mL

MIC (Priestia megaterium): 12.5 µg/mL (≈ 10.7 µM)
MIC (Staphylococcus aureus [2]): 50 µg/mL (≈ 42.6 µM)
MIC (Pseudomonas aeruginosa [3]): > 100 µg/mL
MIC (Bacillus subtilis): 12.5 µg/mL (≈ 10.7 µM)
MIC (Escherichia coli [4]): > 100 µg/mL
Compound: NCCC[C@@H]1NC(=O)[C@H](CCCN)NC(=O)[C@@H]2CCCN2C(=O)[C@@H](Cc2ccccc2)NC(=O)[C@H](CCCN)NC(=O)[C@H](CCCN)NC(=O)[C@H](CCCN)NC(=O)[C@@H]2CCCN2C(=O)[C@@H](Cc2ccccc2)NC(=O)[C@H](CCCN)NC1=O [listing 2 of 2 here]

MIC (Staphylococcus aureus [5]): 256 µg/mL (≈ 251 µM)
Compound: CC(C)C[C@@H]1NC(=O)[C@@H](CCCN)NC(=O)[C@H](C(C)C)NC(=O)c2cccc(c2)/N=N/c2ccc(cc2)CNC(=O)[C@H](CCCN)NC(=O)[C@H](C(C)C)NC(=O)[C@@H]2CCCN2C(=O)[C@@H](Cc2ccccc2)NC1=O

MIC (Escherichia coli [6]): 32 µg/mL (≈ 28 µM)
MIC (Enterococcus faecalis): 16 µg/mL (≈ 14 µM)
MIC (Pseudomonas aeruginosa [7]): > 64 µg/mL
MIC [8]: 8 µg/mL (≈ 6.99 µM)
MIC (Staphylococcus aureus [9]): 16 µg/mL (≈ 14 µM)
MIC (Bacillus cereus): 8 µg/mL (≈ 6.99 µM)
Compound: CC(C)C[C@@H]1NC(=O)[C@H](CCCN)NC(=O)[C@H](C(C)C)NC(=O)[C@@H]2CCCN2C(=O)[C@@H](Cc2ccccc2)NC(=O)[C@H](CC(C)C)NC(=O)[C@H](CCCN)NC(=O)[C@H](C(C)C)NC(=O)[C@H]2CC[C@H](OCc3ccccc3)[C@@H](CNC1=O)O2

Compound: CC(C)C[C@@H]1NC(=O)[C@H](CCCN)NC(=O)[C@H](C(C)C)NC(=O)[C@H](C)N(C)C(=O)[C@@H](Cc2ccccc2)NC(=O)[C@H](C)N(C)C(=O)[C@@H](CCCN)NC(=O)[C@H](C(C)C)NC(=O)[C@@H]2CCCN2C(=O)[C@@H](Cc2ccccc2)NC1=O
MIC (Staphylococcus aureus [10]): 7 µg/mL (≈ 6.36 µM)
HC50 at 1 h [11]: 69.2 µg/mL
MIC (Klebsiella pneumoniae): 7 µg/mL (≈ 6.36 µM)
MIC (Escherichia coli [12]): 28 µg/mL (≈ 25.4 µM)
MIC [13]: 1.8 µg/mL (≈ 1.63 µM)
MIC (Staphylococcus aureus [14]): 3.5 µg/mL (≈ 3.18 µM)
MIC (Salmonella): 28 µg/mL (≈ 25.4 µM)

Compound: NCCC[C@@H]1NC(=O)[C@H](C23CC4CC(CC(C4)C2)C3)NC(=O)[C@H](CCCN)NC(=O)[C@@H]2CCCN2C(=O)[C@@H](Cc2ccccc2)NC(=O)[C@H](CCCN)NC(=O)[C@H](C23CC4CC(CC(C4)C2)C3)NC(=O)[C@H](CCCN)NC(=O)[C@@H]2CCCN2C(=O)[C@@H](Cc2ccccc2)NC1=O
HC50 at 4 h [15]: 107 µg/mL
